Test systems include SF-295 CNS; NCI-H226 lung; ACHN renal; SF-268 CNS; MDA-MB-231 breast; HCT-15 colon; HCC-2998 colon; HOP-92 NSCLC; SK-OV-3 ovarian; SNB-75 CNS.
Common to all, as to test: DTP human tumour cell line panel, 48 h

Values joined by “and” are separate entries in the source; they are usually repeats but may differ in a detail not shown here. Equal entries are not always repeated.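 Growth conditions: 96-well plates. Treatment: test compound, 48 hours, 5 concentrations. Analysis: linear interpolation between bracketing concentrations; unreached endpoints set to highest concentration. Definition used: TGI = concentration required for complete inhibition of growth.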

The text below walks through data of PubChem BioAssay (NCI).

On to `COC1/C=C/C(C)C(C(C)C(OC)C(C)CCC(=O)C(C)C(C/C=C/N(C)C=O)OC)OC(=O)/C=C/C=C(\C)CC(OC)C(OC)C2=CC(=O)O[C@@H](C(C)C(OC)CC(OC)/C=C/C(C)C(O)C1)[C@H]2O` (stereo partly specified), for which the TGI (in general, the concentration giving total growth inhibition) was 0.273 µM with SF-295 CNS; 0.244 µM with NCI-H226 lung; 0.594 µM with ACHN renal; 0.407 µM in the assay on SF-268 CNS; 0.247 µM with MDA-MB-231 breast; 0.329 µM with HCT-15 colon. Moreover, the TGI in the assay with HCC-2998 colon came to 0.359 µM; in the assay on HOP-92 NSCLC, 0.115 µM.

For the compound `CCCCCCCCC/C=C1\CC(CO)(COC(=O)c2ccccc2)OC1=O` (stereo unspecified), the TGI is 39 µM in the assay with SF-295 CNS; 57.9 µM in the assay on NCI-H226 lung; more than 100 µM in the assay on ACHN renal; 43.3 µM in the assay on SK-OV-3 ovarian; 54 µM with SF-268 CNS; 40.4 µM in the assay on MDA-MB-231 breast. Moreover, the TGI in the assay with HCT-15 colon was determined as 35.5 µM; in the assay with SNB-75 CNS, 38.3 µM; with HCC-2998 colon, 39.3 µM; with HOP-92 NSCLC it was 30.4 µM.

Turning to `CC1CCC2(CC1)N=C1CCC(C)CC1C1(CCC(C)CC1)N2` (stereo unspecified), the TGI in the assay with SF-295 CNS, in the assay on NCI-H226 lung, with ACHN renal, in the assay with SK-OV-3 ovarian, in the assay with MDA-MB-231 breast and in the assay with HCT-15 colon was more than 100 µM in each case. The TGI in the assay on SNB-75 CNS, with HCC-2998 colon and in the assay with HOP-92 NSCLC was more than 100 µM throughout.

As for `NCCCCNC1(c2cc3ccccc3s2)CCCCC1`, the TGI in the assay on SF-295 CNS is 8.83 µM; with NCI-H226 lung, 34 µM; with ACHN renal, 23.2 µM; in the assay on SK-OV-3 ovarian it was 28 µM; with SF-268 CNS it was 13.5 µM; with MDA-MB-231 breast, 11.4 µM. For the same compound, the TGI is 17.7 µM with HCT-15 colon, 9.9 µM in the assay with SNB-75 CNS, 3.1 µM in the assay on HCC-2998 colon and 20.8 µM in the assay on HOP-92 NSCLC.

In the case of `COc1ccc(C2=CN3CCC[C@H]3C=C2c2cc(O)c(OC)c(OC)c2)cc1OC`, the TGI stood at 0.115 µM in the assay with SF-295 CNS; 0.0294 µM with NCI-H226 lung; 0.0959 µM in the assay with ACHN renal; 0.221 µM with SK-OV-3 ovarian; 0.112 µM in the assay with SF-268 CNS; 0.15 µM in the assay with MDA-MB-231 breast. Besides, the concentration for total growth inhibition (TGI) was 0.00947 µM with SNB-75 CNS; 0.0412 µM and 0.0431 µM with HCC-2998 colon; 0.0294 µM with HOP-92 NSCLC.

Take `CC(=O)NC1=C(C)C(=O)c2c(nc3n2CC[C@H]3OC(C)=O)C1=O`: the TGI came to 5.49 µM with SF-295 CNS; 29.7 µM in the assay on NCI-H226 lung; 9.34 µM in the assay with ACHN renal; 10.7 µM in the assay with SF-268 CNS; 2.71 µM in the assay on MDA-MB-231 breast; 12.6 µM with HCT-15 colon. Also, the TGI turned out to be 9.18 µM in the assay with SNB-75 CNS, 7.73 µM in the assay with HCC-2998 colon and 1.83 µM in the assay with HOP-92 NSCLC.

As to `CC[C@@H]1CC[C@@H]2[C@H](CC[C@]3(C)[C@@H](OS(=O)(=O)c4ccc(C)cc4)CC[C@@H]23)[C@H]1CO`, the TGI in the assay with SF-295 CNS, in the assay on NCI-H226 lung, with ACHN renal, in the assay with SF-268 CNS, with MDA-MB-231 breast and in the assay on HCT-15 colon was more than 100 µM in each case. In addition, the TGI with SNB-75 CNS, in the assay on HCC-2998 colon and with HOP-92 NSCLC was more than 100 µM each time.

Turning to `Cc1c(F)c(N)c2c(=O)cc(-c3ccc(NC(=O)C(N)CCCN=C(N)N)c(F)c3)oc2c1F` (stereo unspecified), the TGI is more than 56 µM with SF-295 CNS; 0.758 µM in the assay on NCI-H226 lung; 48.5 µM in the assay on ACHN renal; more than 68.2 µM in the assay on SK-OV-3 ovarian; more than 100 µM in the assay on SF-268 CNS; more than 59.6 µM in the assay with MDA-MB-231 breast. Besides, the total growth inhibition concentration (TGI) in the assay on HCT-15 colon, with HCC-2998 colon and in the assay with HOP-92 NSCLC was more than 100 µM in each case.

In the case of `O=C(O)/C=C/C(=O)O`, the TGI in the assay with SF-295 CNS, in the assay with NCI-H226 lung, with ACHN renal, with SF-268 CNS, with MDA-MB-231 breast and with HCT-15 colon was more than 100 µM throughout. In addition, the concentration for total growth inhibition (TGI) with SNB-75 CNS, in the assay on HCC-2998 colon and in the assay with HOP-92 NSCLC was more than 100 µM throughout.

As for `CCOC(=O)C(=Cn1c(=S)[nH]c2ccc([N+](=O)[O-])cc21)C(=O)OCC`, the TGI with SF-295 CNS, in the assay with NCI-H226 lung, in the assay on ACHN renal, in the assay on SK-OV-3 ovarian, in the assay with SF-268 CNS and with MDA-MB-231 breast was more than 100 µM in each case. Also, the TGI in the assay with SNB-75 CNS, with HCC-2998 colon and in the assay with HOP-92 NSCLC was more than 100 µM each time.

`COc1cc(C2S/C(=C/c3ccccc3)C(=O)N2c2cccc([N+](=O)[O-])c2)cc(OC)c1OC` (stereo unspecified): the concentration for total growth inhibition (TGI) in the assay with SF-295 CNS, in the assay on NCI-H226 lung, with ACHN renal, with SK-OV-3 ovarian, in the assay with SF-268 CNS and in the assay on MDA-MB-231 breast was more than 100 µM throughout. The TGI in the assay on HCT-15 colon, with HCC-2998 colon and in the assay with HOP-92 NSCLC was more than 100 µM throughout.

Turning to `O=C(NN1C(=O)C=CC1=O)c1ccccc1Nc1ccccc1C(=O)NN1C(=O)C=CC1=O`, the TGI with SF-295 CNS, in the assay on NCI-H226 lung, with ACHN renal, in the assay with SF-268 CNS, in the assay with MDA-MB-231 breast and in the assay on HCT-15 colon was more than 100 µM throughout. Also, the TGI in the assay with SNB-75 CNS, in the assay on HCC-2998 colon and in the assay on HOP-92 NSCLC was more than 100 µM each time.

In the case of `C#CCOC(=O)C(N)CCCN=C(N)N` (stereo unspecified), the TGI with NCI-H226 lung, with ACHN renal, in the assay on SF-268 CNS, with MDA-MB-231 breast, in the assay on HCT-15 colon and in the assay with SNB-75 CNS was more than 100 µM each time. The TGI in the assay on HCC-2998 colon and in the assay on HOP-92 NSCLC was more than 100 µM in each case.

In the case of `COc1cc(/C=C/C(=O)OC[C@H](Br)[C@H](OC(C)=O)c2ccc3c(c2)OCO3)cc(OC)c1OC`, the TGI in the assay on SF-295 CNS, with NCI-H226 lung, with ACHN renal, with SK-OV-3 ovarian, in the assay on SF-268 CNS and with MDA-MB-231 breast was more than 100 µM in each case. Moreover, the TGI in the assay with HCT-15 colon, in the assay on HCC-2998 colon and in the assay with HOP-92 NSCLC was more than 100 µM each time.
